Results reported in BindingDB's records for doi:10.1016/s0960-894x(01)00577-7 (University of Toledo, 2001).

Assay: Inhibitory concentration against polymerization in A17 double mutant HIV-1 RT using a template primer of poly rC/dG12-18 and [3H]dGTP

| Structure (SMILES) | IC50 |
| --- | --- |
| O=C(OC1COc2cc(O)cc(O)c2C1)c1cccc(O)c1O (stereo not drawn) [2,3-Dihydroxy-benzoic acid 5,7-dihydroxy-chroman-3-yl ester] | > 100 µM |
| O=C(OC1COc2cc(O)ccc2C1)c1ccc(O)c(O)c1O (stereo not drawn) [2,3,4-Trihydroxy-benzoic acid 7-hydroxy-chroman-3-yl ester] | 30.8 µM |
| O=C(OC1COc2ccccc2C1)c1ccc(O)c(O)c1O (stereo not drawn) [2,3,4-Trihydroxy-benzoic acid chroman-3-yl ester] | > 100 µM |
